# Results taken from article PMC4474874, “Effect of JAK Inhibitors on Release of CXCL9, CXCL10 and CXCL11 from Human Airway Epithelial Cells” (PLoS ONE, 2015).
# Like-named read-outs stand apart in the source and are kept apart here.
# Columns and labels:
# [1] = test system: BEAS-2B cells; experiment: Release of CXCL9, CXCL10 and CXCL11 from BEAS-2B cells (ELISA), inhibitors added concomitantly with stimulus; type: cell-based, human
# Protocol: (§1) Cell-free supernatants were removed 20h post-stimulation and assayed for CXCL9, CXCL10 and CXCL11 using Duoset ELISA kits (R & D Systems Europe, Abingdon, UK) according to the manufacturer’s instructions. The detection limits of these assays are 62pg/ml, 31pg/ml, and 7.8 pg/ml respectively.
# It was possible that concomitant addition of stimulus and JAK inhibitors may elicit a different inhibitory profile, therefore to address this, experiments were performed. […] Experiments were then performed to determine the effects of both JAK inhibitors in human primary airway epithelial cells in order to determine whether their ability to suppress CXCR3 chemokine release from BEAS-2B cells was reflective of their efficacy in primary cells.
# Media was harvested and the concentrations of CXCL9 (panels a and d), CXCL10 (panels b and e) and CXCL11 (panels c and f) were measured by ELISA. Data are presented as mean±SEM, n = 7–8. (EPS) Click here for additional data file. […]
# After this time, media was harvested and the concentrations of CXCR3 chemokines measured by ELISA. Data are presented as mean±SEM, n=4
# [2] = test system: human primary airway epithelial cells; experiment: Release of CXCL9, CXCL10 and CXCL11 from human primary airway epithelial cells (ELISA); type: cell-based; settings: pre-treated 1h; for IC50: pooled primary cells
# Protocol: BEAS-2B cells (catalogue number CRL-9609) were purchased directly from American Type Culture Collection (Rockville, MD). Keratinocyte serum-free medium (K-SFM), bovine pituitary extract (BPE), and recombinant human epidermal growth factor (EGF) were purchased from Invitrogen (Paisley, UK). BEAS-2B cells were cultured in K-SFM containing 50 μg/ml BPE and 5 ng/ml EGF at 37°C in a humidified atmosphere comprising 5% (v/v) CO2 in air. Cells were cultured as monolayers in growth factor-free media for 24 h prior to stimulation. Human primary airway epithelial cells were cultured as monolayers from bronchial brushings from both male and female subjects (Table 1) and cultured in LHC-9 media (Invitrogen, Paisley, UK) in collagen (1% w/v) coated flasks. Samples were obtained from non-smokers, smokers and patients with COPD. […] The subjects were matched for age and smokers and COPD patients for smoking history (Table 1). All subjects gave informed written consent and the study was approved by the NRES London-Chelsea Research Ethics committee, study number 09/H0801/85.
# as §1
# Data are presented as mean ± SEM of ‘n’ independent determinations. Concentration-response curves were analysed by least-squares, non-linear iterative regression with the ‘Graphpad Prism’ curve fitting program (GraphPad software, San Diego, USA) and IC50 values were subsequently interpolated from curves of best-fit. Statistical differences were determined using the Kruskal–Wallis test followed by Dunn's multiple comparison test or a Wilcoxon signed rank test as appropriate. Values of P<0.05 were considered significant.
# Media was harvested and the concentrations of CXCL9 (panels a and d), CXCL10 (panels b and e) and CXCL11 (panels c and f) were measured by ELISA. Data are presented as mean ± SEM, n = 10–13.
# [3] = test system: human primary airway epithelial cells; experiment: IL-6 release from IFNγ + TNFα-stimulated human primary airway epithelial cells; type: cell-based; settings: IFNγ + TNFα, n = 7
# Protocol: In order to determine whether any of the inhibitory effects of the JAK inhibitors could be attributed to cell death, MTT assays were performed at the end of every experiment. […] In order to address this issue, the levels of IL-6 released from cells stimulated with IFNγ + TNFα were measured.
# [4] = test system: STAT-1; experiment: STAT-1 DNA binding in BEAS-2B cells (TransAM); type: cell-based, human; settings: IFNγ and IFNγ + TNFα stimulation
# Protocol: STAT phosphorylation, nuclear translocation and DNA binding was determined using TransAM assays (Actif Motif, Rixensart, Belgium). Cells were treated with JAK inhibitors for 30 min prior to stimulation for 1h. Nuclear extracts were prepared using the Actif Motif assay reagents. Briefly, the nuclear extracts (10 μg) were incubated in DNA coated plates for 1h. After washing, antibodies supplied with the TransAM kit that were specific for the active forms of STAT1, STAT3, STAT5A and STAT5B were added to the wells and incubated for a further hour. The plates were washed and a secondary HRP-labelled anti-goat Ig antibody was added and the plates incubated for an hour. After washing, the assay was developed using the TMB substrate provided and the reaction stopped using 2N sulphuric acid. The plates were read at 450nm with a reference filter of 610nm. Data were then normalised to non-stimulated cells and calculated as fold change from baseline.
# After 1 h, nuclear extracts of the cells were prepared and TransAM assays for STAT-1 (panel a) and STAT-3 (panel b) were performed. Data are presented as fold change from baseline ± SEM; n = 4.
# [5] = test system: BEAS-2B cells; experiment: mRNA expression of CXCL9, CXCL10 and CXCL11 in BEAS-2B cells (Taqman RT-PCR); type: cell-based, human; settings: BEAS-2b, pretreated 1h, IFNγ or IFNγ with TNFα for 4h
# Protocol: Total RNA was extracted from cells and reverse transcribed, as described previously. Gene expression was determined by Taqman real-time PCR on a 7500 Real Time PCR system (Applied Biosystems, Life Technologies Ltd, Paisley, UK) using PCR Master Mix Reagent and ‘assays on demand’ (Applied Biosystems). HPRT1 gene expression was used as the housekeeping gene and data presented as δδCT relative to baseline.
# Gene expression of CXCL9 (panels a and b), CXCL10 (panels c and d) and CXCL11 (panels e and f) were quantified by Taqman RT-PCR. Data are presented as fold change form stimulus ± SEM; n = 3 where 1 indicates the level of mRNA induced by IFNγ or IFNγ + TNFα in the absence of inhibitors.
# [6] = test system: PKA; set-up: method as in PMID 18094329; settings: at concentrations >5μM; cited from earlier work
smiles,measurement,setting,value
C[C@@H]1CCN(C(=O)N2CCCC2)C[C@@H]1N(C)c1ncnc2[nH]ccc12 [PF956980],IC50,"[1]; inhibitor concomitant with IFNγ (10 ng/ml) 20h, read-out: IC50, release of CXCL9",300 ± 100 nM
same,IC50,"[1]; inhibitor concomitant with IFNγ (10 ng/ml) 20h, read-out: IC50, release of CXCL10",1100 ± 400 nM
same,IC50,"[1]; inhibitor concomitant with IFNγ (10 ng/ml) 20h, read-out: IC50, release of CXCL11",1100 ± 300 nM
same,IC50,"[1]; inhibitor concomitant with IFNγ+TNFα (10 ng/ml) 20h, read-out: IC50, release of CXCL9",1000 ± 300 nM
same,IC50,"[1]; inhibitor concomitant with IFNγ+TNFα (10 ng/ml) 20h, read-out: IC50, release of CXCL10",4000 ± 1300 nM
same,IC50,"[2]; IFNγ (10ng/ml) 20h, read-out: IC50, release of CXCL9",680 ± 120 nM
same,IC50,"[2]; IFNγ (10ng/ml) 20h, read-out: IC50, release of CXCL10",960 ± 190 nM
same,IC50,"[2]; IFNγ (10ng/ml) 20h, read-out: IC50, release of CXCL11",760 ± 120 nM
same,IC50,"[2]; IFNγ+TNFα (10ng/ml) 20h, read-out: IC50, release of CXCL9",520 ± 170 nM
same,IC50,"[2]; IFNγ+TNFα (10ng/ml) 20h, read-out: IC50, release of CXCL10",2120 ± 240 nM
same,IC50,"[2]; IFNγ+TNFα (10ng/ml) 20h, read-out: IC50, release of CXCL11",1580 ± 330 nM
same,EC50,"[2]; primary cells from COPD patients, IFNγ (10 ng/ml) 20h, read-out: EC50, release of CXCL9",630 ± 90 nM
same,EC50,"[2]; primary cells from COPD patients, IFNγ (10 ng/ml) 20h, read-out: EC50, release of CXCL10",530 ± 10 nM
same,EC50,"[2]; primary cells from COPD patients, IFNγ (10 ng/ml) 20h, read-out: EC50, release of CXCL11",820 ± 250 nM
same,EC50,"[2]; primary cells from COPD patients, IFNγ +TNFα (10 ng/ml) 20h, read-out: EC50, release of CXCL9",590 ± 380 nM
same,EC50,"[2]; primary cells from COPD patients, IFNγ +TNFα (10 ng/ml) 20h, read-out: EC50, release of CXCL10",1840 ± 400 nM
same,EC50,"[2]; primary cells from COPD patients, IFNγ +TNFα (10 ng/ml) 20h, read-out: EC50, release of CXCL11",1920 ± 670 nM
same,EC50,"[2]; primary cells from non-smokers, IFNγ (10 ng/ml) 20h, read-out: EC50, release of CXCL9",880 ± 390 nM
same,EC50,"[2]; primary cells from non-smokers, IFNγ (10 ng/ml) 20h, read-out: EC50, release of CXCL10",810 ± 150 nM
same,EC50,"[2]; primary cells from non-smokers, IFNγ (10 ng/ml) 20h, read-out: EC50, release of CXCL11",660 ± 240 nM
same,EC50,"[2]; primary cells from non-smokers, IFNγ +TNFα (10 ng/ml) 20h, read-out: EC50, release of CXCL9",610 ± 260 nM
same,EC50,"[2]; primary cells from non-smokers, IFNγ +TNFα (10 ng/ml) 20h, read-out: EC50, release of CXCL10",2720 ± 360 nM
same,EC50,"[2]; primary cells from non-smokers, IFNγ +TNFα (10 ng/ml) 20h, read-out: EC50, release of CXCL11",1850 ± 670 nM
same,EC50,"[2]; primary cells from smokers, IFNγ (10 ng/ml) 20h, read-out: EC50, release of CXCL9",550 ± 90 nM
same,EC50,"[2]; primary cells from smokers, IFNγ (10 ng/ml) 20h, read-out: EC50, release of CXCL10",1280 ± 360 nM
same,EC50,"[2]; primary cells from smokers, IFNγ (10 ng/ml) 20h, read-out: EC50, release of CXCL11",780 ± 160 nM
same,EC50,"[2]; primary cells from smokers, IFNγ +TNFα (10 ng/ml) 20h, read-out: EC50, release of CXCL9",350 ± 260 nM
same,EC50,"[2]; primary cells from smokers, IFNγ +TNFα (10 ng/ml) 20h, read-out: EC50, release of CXCL10",1880 ± 410 nM
same,EC50,"[2]; primary cells from smokers, IFNγ +TNFα (10 ng/ml) 20h, read-out: EC50, release of CXCL11",870 ± 130 nM
same,IC50,[3],11400 ± 9000 nM
same,effect on STAT-1 DNA binding,[4],suppressed
same,"effect on expression of CXCL9, CXCL10 and CXCL11 (mRNA)",[5],"suppressed expression of CXCL9, CXCL10 and CXCL11 in a concentration dependent manner"
same,effect against PKA,[6],modest effects
